The values that follow come from patent US6469057B1, “Methods for in vivo reduction of free radical levels and compositions useful therefor” (MCW Research Foundation, Inc., priority 1995, dated 2002).

“Also recorded” adds a separate entry of the source.

Assay [1] deals with NO. Nature of the assay: Ex vivo EPR measurement of [(MGD)2/Fe-NO] levels in the urine of normal mice.
Method: Normal mice housed in a restraining tube were injected subcutaneously with 0.4 ml of the [(MGD)2/Fe] complex (326 mg/Kg of MGD and 34 mg/Kg of FeSO4). After 2 hours, the animals were sacrificed and the urine samples were collected from the urinary bladder. The urine sample, which was dark brown (characteristic of the presence of [(MGD)2/Fe] complex), was transferred to a quartz flat cell for EPR measurement. The spectra were recorded at 22° C. with an X-band EPR spectrometer, operating at 9.5 GHz. Instrument settings include 100-G field scan, 4-min scan time, 0.5-s time constant, 2.5-G modulation amplitude, 100-KHz modulation frequency and 100-mW microwave power. The concentrations of the [(MGD)2/Fe—NO] complex in the urine samples were calculated by comparing the signal intensities obtained from the samples to the signal intensity of a standard solution containing 0.1 mM of the [(MGD)2/Fe—NO] complex.
For inhibition experiments, mice were injected intraperitoneally with 50 mg/kg NMMA in saline immediately after the injection of the [(MGD)2/Fe] complex. In other experiments, mice were injected intravenously with 3 mg/kg dexamethasone in saline about 1.5 h before the injection of the [(MGD)2/Fe] complex. […] Acetylcholine chloride (Sigma) in saline was freshly prepared prior to subcutaneous injection at a dose of 67 mg/kg.
At 2 h after subcutaneous injection of an aliquot (0.4 ml) of the [(MGD)2/Fe] complex (326 mg/Kg of MGD and 34 mg/Kg of FeSO4) into normal mice (A) (and also in the presence of NMMA (50 mg/kg) (B), or of dexamethasone (3 mg/kg) (C)), the animals were sacrificed and the urine samples collected and transferred to a quartz flat cell for X-band (9.5 GHz) EPR measurement at 22° C.
Assay [2] relates to NO. Nature of the assay: Ex vivo EPR measurement of [(MGD)2/Fe-NO] levels in the urine of LPS-treated mice. Particulars: for [(MGD)2/Fe-NO] present in LPS-treated mouse urine: urine 2 h later. How it is done: After 2 h, the mouse was sacrificed and the urine sample was collected from the urinary bladder, and immediately transferred to a quartz flat cell for X-band EPR measurement as described above in Example 2B. Inhibition experiments with NMMA or dexamethasone were performed as described above in Example 2A, except that the mice were treated with LPS prior to following the protocols for NO inhibition experiments. The procedures for S-band EPR measurement of wet tissues and blood samples were as described previously (Lai and Komarov, supra).
Thus, at 6 h after LPS treatment, mice were injected with the [(MGD)2/Fe] complex, with and without i.p. injection of NMMA (50 mg/kg). The mice were sacrificed at 2 h after injection of the [(MGD)2/Fe] complex. The urine samples were collected and the EPR measurement was carried out at 22° C.

As to `CC(=O)OCC[N+](C)(C)C.[Cl-]` [Acetylcholine, acetylcholine chloride], in assay [1] (mouse, in vivo), the “[(MGD)2/Fe-NO] present in mouse urine” value is reported as 3.9 ± 0.8 (3) μM. The “increase in urinary [(MGD)2/Fe-NO] levels” value in assay [1] (normal mice, acetylcholine 67 mg/kg s.c.) came to 3 fold.
As to `CNC(=N)NCCC[C@H](N)C(=O)O` [NMMA, N^G-monomethyl-L-arginine], the “effect on signal intensity of [(MGD)2/Fe-NO] in the urine of LPS-treated mice” value in assay [2] (NMMA 50 mg/kg i.p. at 6 h after LPS) was “markedly reduces the signal intensity; also recorded: markedly reducing the signal intensity”. The “[(MGD)2/Fe-NO] present in LPS-treated mouse urine” value in assay [2] (NMMA 50 mg/kg i.p. at 6 h after LPS just prior to [(MGD)2/Fe]) is on record as 3.6 ± 0.9 (4); in assay [2] (NMMA 100 mg/kg i.p. at 6 h after LPS just prior to [(MGD)2/Fe]) it was 7.3 ± 2.2 (3). The “effect on the [(MGD)2/Fe-NO] EPR signal in urine” value in assay [1] (normal mice, NMMA 50 mg/kg i.p., dexamethasone 3 mg/kg i.v. pretreatment) was “markedly reduced”.
